# Reference: PMC6987146, “Potent inhibition of HIV replication in primary human cells by novel synthetic polyketides inspired by Aureothin” (Scientific Reports, 2020)
# Columns and labels:
# [1] = tested on: PBMC proteome; experiment: Proteomics (LC-MSMS) of PBMCs treated with compound #7, with or without HIV exposure; format: cell-based, human; details: PBMCs from three donors; ≥2-fold change
# Procedure: Stimulated PBMCs or CD4+ cells (5,000,000 cells) were seeded into 12-well plates before compound treatment and inoculation with HIV-1LAI at an MOI of 0.5, followed by 48 h incubation at 37 °C, 5% CO2. HIV inhibition was confirmed by quantifying infectious virus production in LC5-RIC cells as described above. Protein lysates were prepared from cells harvested, washed with PBS and lysed by incubating the cells for 10 min at 4 °C in lysis buffer (100 mM Tris-HCl pH 8.3, 150 mM NaCl, 1% glycerol, 1% NP-40, 0.5% deoxycholate, 0.1% SDS, 0.1% Triton-X100) and centrifuged for 20 min at 4 °C, 16,000 g to clear protein lysates. Protein concentrations were determined by using the Pierce^TM BCA Protein Assay Kit (ThermoFisher Scientific) according to manufacturer’s protocol. The proteomes of PBMCs from three different donors were analysed by LC-MSMS and data enrichment analysis was carried out using GeneRanker (Intrexon). For detailed information see Supplementary Methods.
# After measuring the protein concentration of the cell lysates equal total protein amounts (10 µg per sample) were proteolysed with trypsin as described ^4 by a modified filter-aided sample preparation (FASP) procedure ^5.
# Data analysis. The results from three donors were regarded as biological replicates. […]
# [2] = tested on: HIV-1LAI; experiment: Photostability of anti-HIV activity (24 h illumination vs dark, EASY-HIT read-out); format: cell-based; details: 24 h illumination vs same compound kept in the dark; compounds at IC90; LC5-RIC
# Procedure: Figure 1 Profiling of photostability of anti-HIV activity of Aureothin and synthetic Aureothin-derivatives. Anti-HIV activity of compound samples illuminated for 24 h were normalised to anti-HIV activity of samples of the same compound kept in the dark. Anti-HIV activity was measured by quantifying the amounts of infectious virus produced by HIV-1LAI exposed LC5-RIC cells treated with compounds at IC90 concentrations (Supplementary Table S1). […] Shown are means of at least three independent experiments with biological triplicates (n ≥ 3; m = 3) and the standard error of the mean (SEM) indicated.
# LC5-RIC cells were plated as described for the EASY-HIT assay. […] Plates were incubated either in the dark or under constant illumination with a commercially available desk lamp (2X Philips Master PL-S-9W/840/2 P, 30 cm between light source and compounds) for 24 h at room temperature. For analysis of anti-HIV activity, compound samples were transferred to LC5-RIC cells and their anti-HIV activity determined by measuring compound effects on infectious virus production with the EASY-HIT assay. Relative photostability was calculated by normalizing the anti-HIV activity of the illuminated compounds to the antiviral activity of compounds kept in the dark.
# [3] = tested on: HIV Gag protein (Gag-p24); experiment: Intracellular Gag by p24 ELISA and western blot in LC5-RIC cells; format: cell-based; details: HIV-1LAI, 48 h
# Procedure: LC5-RIC cells were plated, treated with compounds and inoculated with virus as described for Alu-PCR above. Cells were harvested, washed with PBS and incubated in 200 µl of PBS + 5% Triton X-100 for 5 min at room temperature. Cell lysates were centrifuged for 5 min at 400 g, supernatants collected, diluted 1:10,000 and Gag-p24 was detected by p24 Antigen Capture Assay (ABLinc) according to the manufacturer’s protocol.
# Western blot analysis for Gag-p24 and GAPDH was performed as described in[48], using the primary antibodies anti-hGAPDH (ThermoFisher Scientific) and anti-HIV-p24 (Calbiochem) as well as the secondary anti-mouse-peroxidase antibody (Jackson ImmunoResearch), all diluted 1:10,000. Bands were visualized by enhanced chemiluminescence and detected by Fusion FX Chemiluminescence detector. Resulting blot images were processed with Fusion FX Software (adjusting brightness and contrast) and Microsoft PowerPoint (labelling and cropping).
# [4] = target: T1, recombinant HIV-1 Protease (Human immunodeficiency virus type 1 group M subtype B, UniProt P04585); experiment: HIV Protease Activity Assay (fluorogenic substrate); format: biochemical; details: 10 µM
# T1 construct: 100 ng recombinant HIV-1 Protease protein (Abcam) was incubated with compounds; purchased Abcam
# Procedure: HIV Protease Activity Assay. 100 ng recombinant HIV-1 Protease protein (Abcam) was incubated with compounds diluted in HIV Protease Activity Assay Buffer (0.1 M sodium acetate, 1.0 M sodium chloride, 1.0 mM ethylenediaminetetraacetic acid (EDTA), 1.0 mM dithiothreitol (DTT), 10% dimethyl sulfoxide (DMSO), 1 mg/ml bovine serum albumin (BSA), pH 7.4) for 1 h at room temperature in the dark. After the designated incubation time the mixtures were added to a 2.5 µM solution of HIV Protease Substrate 1 (Sigma-Aldrich) in HIV Protease Activity Assay Buffer prepared in black 96-well plates. The substrate harbours the fluorophore EDANS (5-(2-aminoethylamino)-1-naphthalene sulfonate) and the acceptor chromophore DABCYL (4’-dimethylaminoazobenzene-4-carboxylate) on opposite sides of the cleavage site (Tyr-Pro). Cleavage of the substrate by the HIV-1 protease results in separation of DABCYL and EDANS, eliminating the quenching effects on EDANS fluorescence at 490 nm. After an additional incubation time of 20 min at 37 °C the increase in fluorescence was measured using a fluorescence microplate reader at an excitation filter wavelength of 340 nm and an emission filter wavelength of 490 nm. Saquinavir was used as reference compound.
# [5] = tested on: HIV-2MVP10668-93; experiment: Inhibition of clinical isolate HIV-2 MVP10668-93 in PBMCs; format: cell-based, HIV-type 2; details: Human immunodeficiency virus 2, PBMC
# Source text: Clinical isolates represented the following HIV genotypes: HIV-1MMVP899-87: HIV-type 1, Major group; HIV-1OMVP5180-91: HIV-type 1, Outlier group; HIV-2MVP10668-93: HIV-type 2; HIV-1V13-03413B: HIV-type 1, Major group/B-clade, isolate with multiple drug-resistance mutations. Depicted are the means of three independent experiments with biological triplicates (n = 3; m = 3) and standard deviations (SD).
# Isolation of primary clinical HIV-isolates HIV-1MMVP899-87, HIV-1OMVP5180-91, HIV-1V13-03413B and HIV-2MVP10668-93 is described in[43]. The HIV-1 M group/B-clade isolate (HIV-1V13-03413B) was isolated from a patient with virological treatment failure. Clinical isolates were produced from HIV infected H9 cells as described.
# To evaluate anti-HIV efficacies of test compounds in primary human target cells, stimulated PBMCs were seeded in 96-well plates at a density of 500,000 cells per well, different #7concentrations of the compound (serial dilutions) and virus inoculum (MOI of 0.5) added to the PBMCs and cultures incubated for 48 h. Infectious virus production was quantified by transferring 35 µl of supernatant from the PBMC cultures to LC5-RIC cells, seeded in black 96-well plates one day earlier. LC5-RIC cultures were then incubated for 72 h and analysed for DsRed1 reporter expression and anti-HIV activity calculated as described for the EASY-HIT assay.
smiles,measurement,setting,value
COc1oc(C2C/C(=C/C(C)=C/c3ccc(C(F)(F)F)cc3)CO2)c(C)c(=O)c1C (stereo not drawn) [compound #7],proportion of differentially expressed proteins (of total proteins detected),[1],< 10%
same,anti-HIV activity retained after exposure to light,[2],over 95%
same,intracellular Gag levels,[3],strongly suppressed production of Gag
same,inhibitory effect on Protease activity,[4],no inhibitory effects
same,IC50,"[5]; read-out: IC50 value, HIV-2 MVP10668-93",3.88 nM
same,IC90,"[5]; read-out: IC90 value, HIV-2 MVP10668-93",11.7 nM
